Assay [1] has as its target HDAC3 (Homo sapiens, UniProt O15379+P40337). Description: HDAC3 degradation by Western blot in MDA-MB-231 cells. It counts as cell-based. For orientation: A western blot detects proteins with antibodies after separation by electrophoresis.
In assay [2] the target is T1, HDAC8 (Homo sapiens, UniProt Q9BY41).
T1 sequence (Q9BY41 1-377): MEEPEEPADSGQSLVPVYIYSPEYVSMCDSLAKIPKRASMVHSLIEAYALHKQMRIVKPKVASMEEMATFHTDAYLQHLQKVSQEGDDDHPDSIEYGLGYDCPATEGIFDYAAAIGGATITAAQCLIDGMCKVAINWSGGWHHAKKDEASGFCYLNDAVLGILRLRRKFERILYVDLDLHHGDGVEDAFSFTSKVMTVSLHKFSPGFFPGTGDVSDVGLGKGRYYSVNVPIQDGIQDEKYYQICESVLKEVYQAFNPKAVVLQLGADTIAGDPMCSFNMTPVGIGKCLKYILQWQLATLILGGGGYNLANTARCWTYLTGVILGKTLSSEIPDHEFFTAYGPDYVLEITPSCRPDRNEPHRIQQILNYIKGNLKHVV
Description: HDAC8 degradation by Western blot in MDA-MB-231 cells. Format: cell-based.

The test system of assay [3] is BC cell lines. Description: Colony formation assays, comparison across several BC cell lines. Format: cell-based, human. Particulars: alone or in combination.
Assay [4] has as its system MDA-MB-231 cells. Description: RNA-seq differential gene expression. It counts as cell-based, human. Particulars: for number of downregulated genes / number of upregulated genes: 24 h, fold-change≥|2|, p ≤ 0.01.
In assay [5] the target is T1, HDAC8. Description: HDAC activity assay. Format: biochemical.
Assay [6] concerns MDA-MB-231. Description: Colony formation assay, MDA-MB-231. Format: cell-based, human.
Assay [7] has as its target T2, HDAC1 (Homo sapiens, UniProt Q13547). Description: HDAC activity assay. Format: biochemical.
The target of assay [8] is T2, HDAC1. Description: HDAC1 protein level by Western blot in MCF7 and MDA-MB-231 cells. Format: cell-based.
In assay [9] the target is HDAC2 (Homo sapiens, UniProt Q92769). Description: HDAC2 protein level by Western blot in MCF7 and MDA-MB-231 cells. Format: cell-based.
Assay [10] deals with HDAC1 and the VHL complex (Homo sapiens, UniProt Q13547). Description: AlphaLISA ternary complex formation, HDAC1. Format: binding. The note with it: broad range of YX968 concentrations. (Alpha assays give light when donor and acceptor beads are brought close together.)
The test system of assay [11] is acetylated core histones (H3K27ac, H2BK5ac, and H4K8ac). Description: Histone acetylation by Western blot. Format: cell-based, human.
Assay [12] has as its system acetylated SMC3. Description: Acetylated SMC3 by Western blot in MDA-MB-231 cells. It counts as cell-based, human. Particulars: YX968 16 nM, 14 h.
In assay [13] the test system is cell cycle progression. Description: Cell cycle profiling. Format: cell-based. The note with it: 24 h.
In assay [14] the test system is MCF7. Description: Colony formation assay, MCF7. Format: cell-based, human.
Assay [15] has as its system T47D. Description: Colony formation assay, T47D. Format: cell-based, human.
For assay [16], the system named is BT549. Description: Colony formation assay, BT549. Format: cell-based, human.
Assay [17] concerns MDA-MB-468. Description: Colony formation assay, MDA-MB-468. Format: cell-based, human.
Assay [18] has as its system HCC1806. Description: Colony formation assay, HCC1806. Format: cell-based, human.
Assay [19] relates to H1299. Description: Colony formation assay, H1299. It counts as cell-based, human.
The test system of assay [20] is caspase 3 (CASP3). Description: CASP3 cleavage. Particulars: MDA-MB-231, 16 h. It counts as cell-based, human.
Assay [21] concerns p21. Description: p21 induction by Western blot in MDA-MB-231 cells. Particulars: MDA-MB-231, 16 h. It counts as cell-based, human.
Assay [22] relates to HDAC1/3/8. Description: HDAC1/3/8 inhibitory activity in vitro, statements across the three isozymes. The note with it: for HDAC1/3/8 inhibitory potency and selectivity: warhead analogues. It counts as biochemical.
Where [23] appears, read: pretreatment with probe, then YX968, MDA-MB-231.
The mark [24] stands for this setting: q-value ≤0.05 and fold-change ≥|2.0|.

pIC50: −log10 of the molar value. “Also recorded” adds a separate entry of the source. Where two headings read alike, the source gives them in different places. Residues, ends and D or L forms follow the SMILES beside them. *: point of attachment. Cbz = O=C(OCc1ccccc1)*

Sequence of HDAC3 (O15379 whole entry): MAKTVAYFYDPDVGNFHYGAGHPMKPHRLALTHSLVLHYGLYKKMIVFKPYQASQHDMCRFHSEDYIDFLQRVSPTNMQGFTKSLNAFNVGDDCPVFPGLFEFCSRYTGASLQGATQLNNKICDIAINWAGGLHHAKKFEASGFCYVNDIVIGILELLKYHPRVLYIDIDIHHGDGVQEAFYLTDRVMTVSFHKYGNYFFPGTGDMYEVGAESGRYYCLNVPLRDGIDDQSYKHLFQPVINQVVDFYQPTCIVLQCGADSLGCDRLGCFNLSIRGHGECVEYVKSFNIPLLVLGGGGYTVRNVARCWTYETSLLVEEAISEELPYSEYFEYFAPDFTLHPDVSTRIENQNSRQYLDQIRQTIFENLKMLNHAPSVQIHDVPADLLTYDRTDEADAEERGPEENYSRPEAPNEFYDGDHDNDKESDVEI
Sequence of HDAC3 (O75376 whole entry partner): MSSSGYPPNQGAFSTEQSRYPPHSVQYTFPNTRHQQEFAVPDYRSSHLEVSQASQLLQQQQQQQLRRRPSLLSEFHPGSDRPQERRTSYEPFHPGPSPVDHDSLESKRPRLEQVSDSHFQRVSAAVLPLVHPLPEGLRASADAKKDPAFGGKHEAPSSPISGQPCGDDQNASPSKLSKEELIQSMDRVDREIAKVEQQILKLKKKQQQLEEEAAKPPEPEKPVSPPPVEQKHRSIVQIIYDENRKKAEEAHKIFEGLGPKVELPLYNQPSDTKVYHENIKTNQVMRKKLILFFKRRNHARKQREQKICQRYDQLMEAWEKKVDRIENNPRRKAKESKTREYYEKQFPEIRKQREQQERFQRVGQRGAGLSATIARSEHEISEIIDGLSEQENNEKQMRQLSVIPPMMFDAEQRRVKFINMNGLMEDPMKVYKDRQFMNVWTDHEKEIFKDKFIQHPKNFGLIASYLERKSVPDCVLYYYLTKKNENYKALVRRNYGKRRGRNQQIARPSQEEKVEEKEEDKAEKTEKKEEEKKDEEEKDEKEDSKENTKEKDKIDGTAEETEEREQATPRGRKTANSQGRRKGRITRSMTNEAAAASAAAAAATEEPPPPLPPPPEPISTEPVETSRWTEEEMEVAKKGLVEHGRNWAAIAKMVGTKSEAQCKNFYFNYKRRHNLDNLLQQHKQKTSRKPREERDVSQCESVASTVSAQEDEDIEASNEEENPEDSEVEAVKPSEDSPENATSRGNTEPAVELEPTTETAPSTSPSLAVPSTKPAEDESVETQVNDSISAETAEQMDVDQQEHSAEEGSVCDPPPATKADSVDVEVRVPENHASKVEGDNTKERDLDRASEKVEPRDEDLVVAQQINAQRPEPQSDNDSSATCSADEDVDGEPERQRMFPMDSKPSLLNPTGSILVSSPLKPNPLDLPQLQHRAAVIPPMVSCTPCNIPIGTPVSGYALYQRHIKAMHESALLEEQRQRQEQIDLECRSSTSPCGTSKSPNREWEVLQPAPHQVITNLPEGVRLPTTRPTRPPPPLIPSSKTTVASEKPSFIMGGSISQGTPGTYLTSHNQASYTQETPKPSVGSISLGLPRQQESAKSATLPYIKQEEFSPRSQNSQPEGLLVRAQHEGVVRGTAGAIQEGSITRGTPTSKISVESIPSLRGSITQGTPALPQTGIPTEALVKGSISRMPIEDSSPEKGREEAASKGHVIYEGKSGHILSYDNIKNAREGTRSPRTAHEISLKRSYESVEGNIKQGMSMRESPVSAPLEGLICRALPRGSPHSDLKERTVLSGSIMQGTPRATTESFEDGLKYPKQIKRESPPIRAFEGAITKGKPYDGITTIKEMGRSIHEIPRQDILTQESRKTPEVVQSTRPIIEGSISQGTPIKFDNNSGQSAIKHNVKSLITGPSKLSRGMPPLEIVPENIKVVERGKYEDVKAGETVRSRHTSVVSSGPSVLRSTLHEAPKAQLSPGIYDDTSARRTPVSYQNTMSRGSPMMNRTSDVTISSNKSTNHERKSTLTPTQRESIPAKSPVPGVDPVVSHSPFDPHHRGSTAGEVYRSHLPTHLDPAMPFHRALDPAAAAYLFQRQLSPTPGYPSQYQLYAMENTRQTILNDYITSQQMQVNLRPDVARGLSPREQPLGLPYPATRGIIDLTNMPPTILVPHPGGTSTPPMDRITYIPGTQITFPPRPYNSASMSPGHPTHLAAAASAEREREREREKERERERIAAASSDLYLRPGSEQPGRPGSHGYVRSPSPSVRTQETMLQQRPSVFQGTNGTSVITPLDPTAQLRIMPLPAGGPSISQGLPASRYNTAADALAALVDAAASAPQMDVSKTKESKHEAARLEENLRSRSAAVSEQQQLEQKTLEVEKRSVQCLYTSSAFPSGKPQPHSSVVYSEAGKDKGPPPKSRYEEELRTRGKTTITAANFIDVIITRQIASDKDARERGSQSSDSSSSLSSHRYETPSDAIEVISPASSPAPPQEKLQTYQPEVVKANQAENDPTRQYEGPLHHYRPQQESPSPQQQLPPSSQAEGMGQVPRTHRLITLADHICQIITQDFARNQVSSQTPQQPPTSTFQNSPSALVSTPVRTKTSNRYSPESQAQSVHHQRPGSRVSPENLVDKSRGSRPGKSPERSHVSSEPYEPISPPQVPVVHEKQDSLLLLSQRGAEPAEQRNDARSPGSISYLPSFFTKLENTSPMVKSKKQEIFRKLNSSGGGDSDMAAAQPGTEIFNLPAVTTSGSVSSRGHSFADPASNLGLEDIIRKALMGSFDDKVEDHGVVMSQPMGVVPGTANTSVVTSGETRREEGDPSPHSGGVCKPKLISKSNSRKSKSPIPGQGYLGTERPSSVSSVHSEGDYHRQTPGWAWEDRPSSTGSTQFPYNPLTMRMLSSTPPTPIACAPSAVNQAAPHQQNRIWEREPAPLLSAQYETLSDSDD
Sequence of HDAC3 (P40337 whole entry): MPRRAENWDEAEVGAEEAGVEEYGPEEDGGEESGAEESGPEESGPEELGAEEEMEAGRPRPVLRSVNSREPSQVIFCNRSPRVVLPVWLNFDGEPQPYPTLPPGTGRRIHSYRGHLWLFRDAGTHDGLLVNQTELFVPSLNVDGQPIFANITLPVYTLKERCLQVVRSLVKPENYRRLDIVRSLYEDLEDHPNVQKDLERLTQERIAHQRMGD
Sequence of HDAC3 (Q15370 whole entry partner): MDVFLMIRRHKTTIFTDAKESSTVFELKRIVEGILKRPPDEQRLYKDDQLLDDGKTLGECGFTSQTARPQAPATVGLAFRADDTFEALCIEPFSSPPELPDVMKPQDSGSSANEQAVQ
Sequence of HDAC3 (Q15369 whole entry partner): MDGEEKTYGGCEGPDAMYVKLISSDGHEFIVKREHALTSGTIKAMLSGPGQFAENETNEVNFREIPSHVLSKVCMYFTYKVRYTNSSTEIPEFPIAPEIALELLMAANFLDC
T2 sequence (Q13547 whole entry): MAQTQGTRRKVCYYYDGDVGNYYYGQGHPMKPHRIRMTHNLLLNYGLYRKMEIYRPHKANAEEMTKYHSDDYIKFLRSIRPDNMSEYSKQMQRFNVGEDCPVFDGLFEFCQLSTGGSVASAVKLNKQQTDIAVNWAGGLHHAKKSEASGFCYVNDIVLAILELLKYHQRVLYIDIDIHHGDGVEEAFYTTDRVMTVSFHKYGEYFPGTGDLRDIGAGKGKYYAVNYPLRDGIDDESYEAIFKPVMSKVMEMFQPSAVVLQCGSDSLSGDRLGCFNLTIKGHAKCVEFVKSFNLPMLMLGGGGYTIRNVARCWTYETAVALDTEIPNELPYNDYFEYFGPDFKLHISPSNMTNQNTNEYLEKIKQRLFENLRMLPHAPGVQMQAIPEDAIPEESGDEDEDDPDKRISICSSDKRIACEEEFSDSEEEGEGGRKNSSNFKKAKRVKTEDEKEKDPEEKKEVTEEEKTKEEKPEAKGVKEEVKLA
Sequence of HDAC2 (Q92769 whole entry): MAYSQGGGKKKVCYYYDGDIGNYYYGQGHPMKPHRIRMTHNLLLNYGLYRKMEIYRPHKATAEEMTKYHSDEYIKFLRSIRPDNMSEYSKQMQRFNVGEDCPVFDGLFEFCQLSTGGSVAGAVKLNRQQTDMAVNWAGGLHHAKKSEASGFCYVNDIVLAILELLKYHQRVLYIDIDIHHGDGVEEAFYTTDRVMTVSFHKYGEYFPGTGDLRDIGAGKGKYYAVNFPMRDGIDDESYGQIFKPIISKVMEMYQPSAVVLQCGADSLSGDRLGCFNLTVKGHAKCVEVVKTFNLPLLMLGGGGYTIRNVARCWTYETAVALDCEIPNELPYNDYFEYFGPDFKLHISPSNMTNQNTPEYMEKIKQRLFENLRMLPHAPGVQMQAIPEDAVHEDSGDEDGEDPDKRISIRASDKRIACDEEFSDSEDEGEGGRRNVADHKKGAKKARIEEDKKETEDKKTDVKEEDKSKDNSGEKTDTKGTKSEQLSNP
Sequence of HDAC1 and the VHL complex (Q13547 whole entry, one chain of several): as the sequence (Q13547 whole entry) above

For the compound `Cc1cc2c(C(N)=O)cccc2n1-c1nc2c(c(NCc3ccccc3)n1)COCC2` [CB-5803], the “effect of pretreatment on YX968-mediated HDAC3 degradation” value in assay [1] is “only slightly rescued”. Further, the “effect of pretreatment on YX968-mediated HDAC8 degradation” value in assay [2] is reported as “effectively blocked”.

Turning to `CC(C)C[C@@H](C=O)NC(=O)[C@H](CC(C)C)NC(=O)[C@H](CC(C)C)NC(=O)OCc1ccccc1` [MG132] (Cbz-Leu-Leu-Leu-aldehyde), the “effect of pretreatment on YX968-mediated HDAC3 degradation” value in assay [1] (setting [23]) is given as “blocked”; in [1] (probe at 3 μM) it was “only moderately reversed”; in assay [1] (probe at 10 μM), “more effectively rescued”. Moreover, the “effect of pretreatment on YX968-mediated HDAC8 degradation” value in assay [2] (setting [23]) is reported as “blocked”; in [2] (probe at 3 μM) it was “effectively blocked”.

As for `NS(=O)(=O)OC[C@@H]1C[C@@H](n2ccc3c(N[C@H]4CCc5ccccc54)ncnc32)C[C@@H]1O` [MLN4924], in assay [1] (setting [23]), the “effect of pretreatment on YX968-mediated HDAC3 degradation” value was “highly effective in blocking”. Also, the “effect of pretreatment on YX968-mediated HDAC8 degradation” value in assay [2] (setting [23]) is given as “highly effective in blocking”.

With `COc1ccc(Cn2ccc3ccc(C(=O)NO)cc32)cc1` [PCI 34051], the “potency to suppress cell growth vs YX968” value in assay [3] was “less potent than YX968”.

Regarding `Nc1cc(F)ccc1NC(=O)/C=C/c1cnn(C/C=C/c2ccccc2)c1` [RGFP-966], in assay [3], the “potency to suppress cell growth vs YX968” value is listed as “less potent than YX968”.

Turning to `CCCCNNC(=O)c1ccc(Br)cc1` [UF010], in [4] (UF010 treatment), the “number of downregulated genes” value is listed as 761 and the “number of upregulated genes” value was 2,678. In assay [4] (setting [24]), the “number of downregulated DEGs” value was 572 and the “number of upregulated DEGs” value is given as 1,792.

Turning to `CC(=O)N[C@H](C(=O)N1C[C@H](O)C[C@H]1C(=O)NCc1ccc(-c2scnc2C)cc1)C(C)(C)C` [VH032], in assay [2] (setting [23]), the “effect of pretreatment on YX968-mediated HDAC8 degradation” value was “effectively competed”.

In general, pIC50 refers to the IC50 on a negative log10 scale, so that one unit is a factor of ten. High values mean a small IC50, low ones a large IC50. In assay [5], `CCCNNC(=O)c1ccc(-c2ccc(NC(=O)CCCCCCC(=O)N[C@H](C(=O)N3C[C@H](O)C[C@H]3C(=O)N[C@@H](C)c3ccc(-c4scnc4C)cc3)C(C)(C)C)cc2)cc1` [XZ9002, reference compound] showed a negative-log IC50 (pIC50) of 5.96. The “inhibition of clonogenic growth” value in assay [6] (MDA-MB-231, 3 μM) was “moderate inhibition”.

As for `CCCNNC(=O)c1ccc(N2CCN(CCCCCCCC(=O)N[C@H](C(=O)N3C[C@H](O)C[C@H]3C(=O)N[C@@H](C)c3ccc(-c4scnc4C)cc3)C(C)(C)C)CC2)cc1` [YX968, (2S,4R)-1-((S)-3,3-dimethyl-2-(8-(4-(4-(2-propylhydrazine-1-carbonyl)phenyl)piperazin-1-yl)octanamido)butanoyl)-4-hydroxy-N-((S)-1-(4-(4-methylthiazol-5-yl)phenyl)ethyl)pyrrolidine-2-carboxamide], the negative-log IC50 (pIC50) in assay [7] is 6.23. Also, the “effect on HDAC1 protein level” value in assay [8] is “did not affect; also recorded: not degraded”. Moreover, in assay [9], the “effect on HDAC2 protein level” value is “did not affect; also recorded: not degraded”. In [10], the “ternary complex formation with HDAC1” value was “not able to induce a complex”. Besides, the “number of downregulated genes” value in [4] (50 nM) came out at 41. The “number of upregulated genes” value in assay [4] (50 nM) is reported as 53. Besides, the “significant DEGs” value in [4] (setting [24]) is “no significant DEGs”. For the same compound, the “levels of acetylated core histones” value in assay [11] (MCF-7 and MDA-MB-231 cells) is given as “dose-dependently increased”. Besides, the “concentration at which H3K27ac was weakly detectable” value in [11] (MDA-MB-231, 16 h) worked out at 63 nM. Also, the “levels of acetylated SMC3” value in [12] is given as “increased”. Besides, the “effect on cell cycle” value is listed as “negligibly perturbed; also recorded: did not alter cell cycle” in assay [13] (0.1 μM) and “strong G1 arrest; also recorded: markedly induced G1 arrest” in assay [13] (1 μM). In addition, the “concentration at which clonogenic growth was effectively inhibited” value in [14], in [15], in [16], in assay [17] and in assay [18] was 125 nM throughout. For the same compound, in assay [6] (MDA-MB-231), the “clonogenic growth suppression” value was “effectively suppressed at a sub-μM concentration”. Also, in assay [19], the “clonogenic growth sensitivity” value is reported as “quite resistant”. The “CASP3 cleavage (activation)” value in assay [20] is given as “in a dose-dependent manner”. Moreover, the “concentration at which weak CASP3 activation was notable” value in [20] is given as 63 nM. Further, the “concentration at which weak p21 induction was seen” value in assay [21] worked out at 250 nM.

With `CC[C@H](NC(=O)[C@H](C)NC)C(=O)N1C[C@@H](O)C[C@H]1Cc1c(-c2[nH]c3cc(F)ccc3c2C[C@@H]2C[C@H](O)CN2C(=O)[C@H](CC)NC(=O)[C@H](C)NC)[nH]c2cc(F)ccc12` [birinapant, reference compound], the “CASP3 cleavage (activation)” value in assay [20] was “activated CASP3”.

For `CC(C)C[C@H](NC(=O)[C@H](Cc1ccccc1)NC(=O)c1cnccn1)B(O)O` [bortezomib], in assay [1] (setting [23]), the “effect of pretreatment on YX968-mediated HDAC3 degradation” value is listed as “could also reverse”.

On to `CCCNNC(=O)c1ccc(N2CCN(C(C)=O)CC2)cc1` [compound 14, 4-(4-acetylpiperazin-1-yl)-N′-propylbenzohydrazide], for which, in assay [22] (HDAC1, HDAC3, HDAC8), the “fold less potent than 15 for the three HDAC isozymes” value was 3- to 7 fold. Also, in assay [22], the “HDAC1/3/8 inhibitory potency and selectivity” value is “preferentially inhibited HDAC3”.

As to `CCCNNC(=O)c1ccc(N2CCN(C)CC2)cc1` [compound 15, 4-(4-methylpiperazin-1-yl)-N′-propylbenzohydrazide], the “HDAC1/3/8 inhibitory potency and selectivity” value in assay [22] is reported as “highest potency among all the new analogues”.

With `CCCNNC(=O)c1ccc(CN2CCN(C(C)=O)CC2)cc1` [compound 16, 4-((4-acetylpiperazin-1-yl)methyl)-N′-propylbenzohydrazide], the “HDAC1/3/8 inhibitory potency and selectivity” value in assay [22] is “dramatic decline of selectivity and potency”.

Values taken from article PMC10802846 (Cell chemical biology, 2023).
